Measured values: patent US9084828B2, “Oligomer-protein tyrosine kinase inhibitor conjugates” (Nektar Therapeutics, priority 2009, dated 2015)

Target: ABL (Homo sapiens, UniProt P00519)
Experiment: ABL tyrosine kinase inhibition, off-chip incubation mobility-shift kinase assay (Caliper LABCHIP 3000)
Details: for IC50: ABL, ATP at Km 14 μM, unit inferred; for ABL AVG % Activity at Specific Concentration: average of replicate wells
[1] = at 1.0E−09 (concentration unit not given)
[2] = at 1.0E−10 (concentration unit not given)
[3] = at 1.0E−11 (concentration unit not given)
[4] = at 3.0E−09 (concentration unit not given)
[5] = at 3.0E−10 (concentration unit not given)
[6] = at 3.0E−11 (concentration unit not given)

ABL, sequence (P00519 whole entry): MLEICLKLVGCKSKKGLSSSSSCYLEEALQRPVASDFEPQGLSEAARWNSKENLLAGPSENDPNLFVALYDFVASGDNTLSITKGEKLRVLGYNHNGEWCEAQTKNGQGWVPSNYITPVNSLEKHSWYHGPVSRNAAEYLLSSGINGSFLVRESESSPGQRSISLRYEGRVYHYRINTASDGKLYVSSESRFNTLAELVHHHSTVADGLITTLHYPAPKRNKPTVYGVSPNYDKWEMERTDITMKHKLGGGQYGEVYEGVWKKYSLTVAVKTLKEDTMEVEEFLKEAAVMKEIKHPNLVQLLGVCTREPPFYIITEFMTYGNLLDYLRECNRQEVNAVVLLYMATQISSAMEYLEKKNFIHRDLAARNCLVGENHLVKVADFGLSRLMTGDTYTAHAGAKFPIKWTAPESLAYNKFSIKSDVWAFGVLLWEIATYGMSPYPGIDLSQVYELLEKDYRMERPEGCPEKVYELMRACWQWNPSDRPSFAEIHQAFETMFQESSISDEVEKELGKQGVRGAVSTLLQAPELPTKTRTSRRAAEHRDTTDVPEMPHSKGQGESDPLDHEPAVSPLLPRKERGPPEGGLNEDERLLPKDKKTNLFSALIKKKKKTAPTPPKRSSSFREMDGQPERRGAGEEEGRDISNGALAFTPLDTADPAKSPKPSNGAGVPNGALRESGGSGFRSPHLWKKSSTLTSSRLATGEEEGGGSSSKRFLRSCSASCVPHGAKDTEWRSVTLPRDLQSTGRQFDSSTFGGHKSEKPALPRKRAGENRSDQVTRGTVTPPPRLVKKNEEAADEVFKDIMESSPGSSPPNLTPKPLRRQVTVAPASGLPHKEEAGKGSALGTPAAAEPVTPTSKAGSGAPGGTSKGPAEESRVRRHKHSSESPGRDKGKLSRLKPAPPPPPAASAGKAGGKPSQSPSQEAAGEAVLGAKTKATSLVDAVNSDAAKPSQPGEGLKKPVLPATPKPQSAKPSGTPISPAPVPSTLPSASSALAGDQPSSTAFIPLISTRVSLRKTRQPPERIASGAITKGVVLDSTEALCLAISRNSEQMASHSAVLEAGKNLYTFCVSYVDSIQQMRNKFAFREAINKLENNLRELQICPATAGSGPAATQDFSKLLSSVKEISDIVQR

Structure (SMILES)	IC50 [pM]	ABL AVG % Activity at Specific Concentration [1] [%]	ABL AVG % Activity at Specific Concentration [2] [%]	ABL AVG % Activity at Specific Concentration [3] [%]	ABL AVG % Activity at Specific Concentration [4] [%]	ABL AVG % Activity at Specific Concentration [5] [%]	ABL AVG % Activity at Specific Concentration [6] [%]
COCCOCCOCCOCC(=O)OCCN1CCN(c2cc(Nc3ncc(C(=O)Nc4c(C)cccc4Cl)s3)nc(C)n2)CC1 [mPEG3-COO-Dasatinib]	290	2	80	98	−1	44	92
COCCOCCOCCOCC(=O)NC(CC(C)C)C(=O)OCCN1CCN(c2cc(Nc3ncc(C(=O)Nc4c(C)cccc4Cl)s3)nc(C)n2)CC1 (centres unmarked) [mPEG3-Leu-Dasatinib]	430	14	85	99	1	62	97
COCCOCCOCCOCC(=O)N[C@H](C(=O)OCCN1CCN(c2cc(Nc3ncc(C(=O)Nc4c(C)cccc4Cl)s3)nc(C)n2)CC1)C(C)C [mPEG3-Val-Dasatinib]	370	10	85	98	0	54	95
COCCOCCOCCOCCOCCNC(=O)OCCN1CCN(c2cc(Nc3ncc(C(=O)Nc4c(C)cccc4Cl)s3)nc(C)n2)CC1 [mPEG5-NHCOO-Dasatinib]	300	4	80	97	−1	45	94
COCCOCCOCCOCCOCCOCCOCCOCCOCCNC(=O)OCCN1CCN(c2cc(Nc3ncc(C(=O)Nc4c(C)cccc4Cl)s3)nc(C)n2)CC1 [mPEG9-NHCOO-Dasatinib]	310	4	80	97	−1	47	92
